Tested on: pustular psoriasis, gangrenous pyoderma, capillitium erosive dermatitis and Dick & Syme syndrome
Settings: 200 mg/day for 3 weeks, followed by 100 mg/day for three weeks
Procedure: Double blind clinical studies were carried out on patients suffering from pustular psoriasis, gangrenous pyoderma, capillitium erosive dermatitis and Dick & Syme syndrome. Patients were treated with Nimesulide, at a dosage of 200 mg/day for 3 weeks, followed by 100 mg/day for three weeks.
At the end of the treatment, the following parameters were evaluated: number of the skin lesions extent of the skin lesions relief from pain at the nodule sites

[1] = patients, at the end of the treatment

CS(=O)(=O)Nc1ccc([N+](=O)[O-])cc1Oc1ccccc1 [Nimesulide] was tested, and the “remission of the "disease"” value (in some cases) was “complete remission”, the side effects (patients) was “no side effects were observed” and the “effectiveness in the treatment of the "diseases"” value [1] was “statistically effective”. The “extent of the skin lesions” value [1] was “regression of the skin lesions”, the “number of the skin lesions” value [1] was “regression of the skin lesions” and the “relief from pain at the nodule sites” value [1] was “almost complete disappearance of pain”.

— US20020032236A1, “Method for the treatment of dermatological diseases by using nimesulide” (priority 2000, published 2002)
